Here are results for 37 compounds from ChEMBL document CHEMBL1129813, “Synthesis and cell growth inhibitory properties of substituted (E)-1-phenylbut-1-en-3-ones” (Bioorg Med Chem Lett, 1997).

pIC50: −log10 of the molar value.

The experiment has as its system K562. Nature of the experiment: In vitro cell growth inhibitory activity against K562 human chronic myelogenous leukemia cell line. In kind it is functional, cell-based.
With `CC(=O)/C=C/c1ccc2c(c1)OCO2`, the negative-log IC50 (pIC50) was 4.92.
The same measure for `COc1cc(N(C)C)ccc1/C=C/C(C)=O`: 4.17; for `CC(=O)/C=C/c1ccc2ccccc2c1`: 5.12; for `CC(=O)/C=C/c1c(F)c(F)c(F)c(F)c1F`: 5.72.
The figure for `CC(=O)/C=C/c1ccc(N(C)C)cc1` is 4.05; for `CC(=O)/C=C/c1ccc(Cl)cc1Cl` it is 5.10.
The figure for `COc1cc(/C=C/C(C)=O)cc(OC)c1` is 5.24.
In turn, `CC(=O)/C=C/C=C/c1ccccc1` showed a negative-log IC50 (pIC50) of 4.70.
With `COc1ccc(/C=C/C(C)=O)c(OC)c1`, the pIC50 is 4.52.
The figure for `CC(=O)/C=C/c1ccco1` is less than 4.00; for `COc1ccc(/C=C/C(C)=O)cc1OC` it is 4.47; for `CC(=O)/C=C/c1ccc(OCc2ccccc2)cc1` it is 4.99.
The same measure for `CC(=O)/C=C/c1cc(Br)ccc1F`: 5.28.
The same measure for `CC(=O)/C=C/c1ccc(C(C)C)cc1`: 4.68.
In turn, `COc1cc(/C=C/C(C)=O)cc(OC)c1OC` gave a pIC50 of 4.77.
The figure for `CC(=O)/C=C/c1ccc(Br)cc1F` is 5.13; for `COc1ccc(/C=C/C(C)=O)cc1O` it is 4.38.
The same measure for `CC(O)CCc1ccc(O)cc1` (configuration not stated): less than 4.00; for `CC(=O)/C=C/c1ccc(OCc2ccccc2)c(OCc2ccccc2)c1`: 5.08; for `CC(=O)/C=C/c1cccc([N+](=O)[O-])c1`: 5.59.
Compound `CC(=O)/C=C/c1ccc(F)c(Br)c1` gave a negative-log IC50 (pIC50) of 5.54.
The same measure for `COc1cc(/C=C/C(C)=O)cc(OC)c1O`: 4.25; for `CSc1ccc(/C=C/C(C)=O)cc1`: 4.82; for `COc1cc(OC)c(/C=C/C(C)=O)c(OC)c1`: 5.03.
Compound `CC(=O)/C=C/c1cccs1` had a pIC50 of 4.70.
`CC(=O)/C=C/c1ccc(C)cc1` gave a pIC50 of 5.12.
The same measure for `COc1ccc(/C=C/C(C)=O)cc1`: 4.10; for `CC(=O)/C=C/c1ccc(F)cc1`: 5.21; for `CC(=O)/C=C/c1ccc([N+](=O)[O-])cc1`: 5.59.
The same measure for `CC(=O)/C=C/c1cccc(C(F)(F)F)c1`: 5.46; for `COc1cccc(/C=C/C(C)=O)c1O`: 5.00; for `CC(=O)/C=C/c1ccc(Br)cc1`: 5.25.
The same measure for `CC(=O)/C=C/c1ccc(C(F)(F)F)cc1`: 5.48; for `CC(=O)/C=C/c1ccc(Cl)cc1`: 5.08; for `CC(=O)/C=C/c1ccc(O)cc1`: 4.22.
Compound `COc1cc(/C=C/C(C)=O)ccc1O` [DEHYDROZINGERONE] showed a pIC50 of 4.17.
The figure for `CC(=O)CCc1ccc(O)cc1` [RASPBERRYKETONE] is less than 4.00.

As a reminder, the pIC50 is the IC50 on a negative log10 scale, so that one unit is a factor of ten.
